Assay results as given in patent publication US20110082130A1 (LIGAND PHARMACEUTICALS, INC., priority 2006, published 2011).

The molecules below were run against T1, chimeric human H3 receptor (Homo sapiens, UniProt Q9Y5N1) (assay: Chimeric human H3 receptor GTP binding assay (agonist-stimulated GTP-gamma35S binding, Example 7)). Settings: assay of Example 7; "*" in Ki of Table II.
T1 construct: made in house; host or cells: Sf9 insect cells (baculovirus); P2 membrane preparation
Format: biochemical
How it was run: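 Sf9 membranes co-expressing chimeric human H3 receptor and heterotrimeric G-protein, 35 μg/tube, in pH 7.4 Tris buffer with 10 μM GDP. Test compounds (10^−10–10^−6 M) competed against 1 μM histamine, […] GTP-gamma35S, 60 min at room temperature. Filter-bound radioactivity counted; IC50 converted to Ki by Cheng-Prusoff. Agonism/inverse agonism tested without histamine (EC50).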

T1 sequence (Q9Y5N1 with tags, fused parts or gaps): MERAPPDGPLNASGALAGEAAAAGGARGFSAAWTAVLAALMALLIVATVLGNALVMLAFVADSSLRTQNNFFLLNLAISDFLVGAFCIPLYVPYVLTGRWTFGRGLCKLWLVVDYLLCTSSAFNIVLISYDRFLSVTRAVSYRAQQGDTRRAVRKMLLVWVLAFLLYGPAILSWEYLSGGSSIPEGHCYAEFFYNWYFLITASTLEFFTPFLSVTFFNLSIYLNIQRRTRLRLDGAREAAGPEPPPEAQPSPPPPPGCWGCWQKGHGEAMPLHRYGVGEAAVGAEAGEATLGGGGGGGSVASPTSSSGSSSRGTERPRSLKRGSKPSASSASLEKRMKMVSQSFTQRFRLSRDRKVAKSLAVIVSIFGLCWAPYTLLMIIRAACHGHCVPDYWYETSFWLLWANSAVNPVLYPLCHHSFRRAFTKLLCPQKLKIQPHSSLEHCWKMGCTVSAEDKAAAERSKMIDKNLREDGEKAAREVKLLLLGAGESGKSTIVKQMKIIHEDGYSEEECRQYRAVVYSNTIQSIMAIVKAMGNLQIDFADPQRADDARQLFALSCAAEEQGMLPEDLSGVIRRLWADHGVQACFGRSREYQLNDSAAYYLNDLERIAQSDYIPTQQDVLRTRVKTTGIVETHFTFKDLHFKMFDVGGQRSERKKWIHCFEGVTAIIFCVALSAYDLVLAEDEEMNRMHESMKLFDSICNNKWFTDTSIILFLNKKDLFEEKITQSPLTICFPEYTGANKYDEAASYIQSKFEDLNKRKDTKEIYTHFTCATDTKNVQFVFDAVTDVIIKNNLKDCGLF

Ki, < 1 µM:
O=C(CN1CCc2nc(-c3ccc(F)cc3)sc2C1)N1CCN(C2CCC2)CC1 [Compound 297, 5-[2-(4-cyclobutylpiperazin-1-yl)-2-oxoethyl]-2-(4-fluorophenyl)-4,5,6,7-tetrahydro[1,3]thiazolo [5,4-c]pyridine]
O=C(CN1CCc2nc(-c3cccc(F)c3)sc2C1)N1CCN(C2CCC2)CC1 [Compound 298, 5-[2-(4-cyclobutylpiperazin-1-yl)-2-oxoethyl]-2-(3-fluorophenyl)-4,5,6,7-tetrahydro[1,3]thiazolo [5,4-c]pyridine]
O=C(CN1CCc2nc(-c3ccccc3F)sc2C1)N1CCN(C2CCC2)CC1 [Compound 299, 5-[2-(4-cyclobutylpiperazin-1-yl)-2-oxoethyl]-2-(2-fluorophenyl)-4,5,6,7-tetrahydro[1,3]thiazolo [5,4-c]pyridine]
O=C(CN1CCc2nc(-c3ccc4ccccc4c3)sc2C1)N1CCN(C2CCC2)CC1 [Compound 300, 5-[2-(4-cyclobutylpiperazin-1-yl)-2-oxoethyl]-2-(2-naphthyl)-4,5,6,7-tetrahydro[1,3]thiazolo [5,4-c]pyridine]
Cc1ccc(-c2nc3c(s2)CN(CC(=O)N2CCN(C4CCC4)CC2)CC3)c(F)c1 [Compound 301, 5-[2-(4-cyclobutylpiperazin-1-yl)-2-oxoethyl]-2-(2-fluoro-4-methylphenyl)-4,5,6,7-tetrahydro[1,3]thiazolo [5,4-c]pyridine]
Cc1ccc(F)c(-c2nc3c(s2)CN(CC(=O)N2CCN(C4CCC4)CC2)CC3)c1 [Compound 302, 5-[2-(4-cyclobutylpiperazin-1-yl)-2-oxoethyl]-2-(2-fluoro-5-methylphenyl)-4,5,6,7-tetrahydro[1,3]thiazolo [5,4-c]pyridine]
Cc1cc(-c2nc3c(s2)CN(CC(=O)N2CCN(C4CCC4)CC2)CC3)ccc1F [Compound 303, 5-[2-(4-cyclobutylpiperazin-1-yl)-2-oxoethyl]-2-(4-fluoro-3-methylphenyl)-4,5,6,7-tetrahydro[1,3]thiazolo [5,4-c]pyridine]
Cc1cccc(-c2nc3c(s2)CN(CC(=O)N2CCN(C4CCC4)CC2)CC3)c1 [Compound 304, 5-[2-(4-cyclobutylpiperazin-1-yl)-2-oxoethyl]-2-(3-methylphenyl)-4,5,6,7-tetrahydro[1,3]thiazolo [5,4-c]pyridine]
Cc1ccc(-c2nc3c(s2)CN(CC(=O)N2CCN(C4CCC4)CC2)CC3)cc1 [Compound 305, 5-[2-(4-cyclobutylpiperazin-1-yl)-2-oxoethyl]-2-(4-methylphenyl)-4,5,6,7-tetrahydro[1,3]thiazolo [5,4-c]pyridine]
CC(C)c1cccc(-c2nc3c(s2)CN(CC(=O)N2CCN(C4CCC4)CC2)CC3)c1 [Compound 306, 5-[2-(4-cyclobutylpiperazin-1-yl)-2-oxoethyl]-2-(3-isopropylphenyl)-4,5,6,7-tetrahydro[1,3]thiazolo [5,4-c]pyridine]
CC(C)c1ccc(-c2nc3c(s2)CN(CC(=O)N2CCN(C4CCC4)CC2)CC3)cc1 [Compound 307, 5-[2-(4-cyclobutylpiperazin-1-yl)-2-oxoethyl]-2-(4-isopropylphenyl)-4,5,6,7-tetrahydro[1,3]thiazolo [5,4-c]pyridine]
Cc1ccc(-c2nc3c(s2)CN(CC(=O)N2CCN(C4CCC4)CC2)CC3)cc1C [Compound 308, 5-[2-(4-cyclobutylpiperazin-1-yl)-2-oxoethyl]-2-(3,4-dimethylphenyl)-4,5,6,7-tetrahydro[1,3]thiazolo [5,4-c]pyridine]
CCCCc1ccc(-c2nc3c(s2)CN(CC(=O)N2CCN(C4CCC4)CC2)CC3)cc1 [Compound 309, 2-(4-butylphenyl)-5-[2-(4-cyclobutylpiperazin-1-yl)-2-oxoethyl]-4,5,6,7-tetrahydro[1,3]thiazolo [5,4-c]pyridine]
Cc1cc(C)cc(-c2nc3c(s2)CN(CC(=O)N2CCN(C4CCC4)CC2)CC3)c1 [Compound 310, 5-[2-(4-cyclobutylpiperazin-1-yl)-2-oxoethyl]-2-(3,5-dimethylphenyl)-4,5,6,7-tetrahydro[1,3]thiazolo [5,4-c]pyridine]
CCc1ccc(-c2nc3c(s2)CN(CC(=O)N2CCN(C4CCC4)CC2)CC3)cc1 [Compound 311, 5-[2-(4-cyclobutylpiperazin-1-yl)-2-oxoethyl]-2-(4-ethylphenyl)-4,5,6,7-tetrahydro[1,3]thiazolo [5,4-c]pyridine]
CCCc1ccc(-c2nc3c(s2)CN(CC(=O)N2CCN(C4CCC4)CC2)CC3)cc1 [Compound 312, 5-[2-(4-cyclobutylpiperazin-1-yl)-2-oxoethyl]-2-(4-propylphenyl)-4,5,6,7-tetrahydro[1,3]thiazolo [5,4-c]pyridine]
CCc1cccc(-c2nc3c(s2)CN(CC(=O)N2CCN(C4CCC4)CC2)CC3)c1 [Compound 313, 5-[2-(4-cyclobutylpiperazin-1-yl)-2-oxoethyl]-2-(3-ethylphenyl)-4,5,6,7-tetrahydro[1,3]thiazolo [5,4-c]pyridine]
CC(C)(C)c1ccc(-c2nc3c(s2)CN(CC(=O)N2CCN(C4CCC4)CC2)CC3)cc1 [Compound 314, 2-(4-tert-butylphenyl)-5-[2-(4-cyclobutylpiperazin-1-yl)-2-oxoethyl]-4,5,6,7-tetrahydro[1,3]thiazolo [5,4-c]pyridine]
COc1cccc(-c2nc3c(s2)CN(CC(=O)N2CCN(C4CCC4)CC2)CC3)c1 [Compound 315, 5-[2-(4-cyclobutylpiperazin-1-yl)-2-oxoethyl]-2-(3-methoxyphenyl)-4,5,6,7-tetrahydro[1,3]thiazolo [5,4-c]pyridine]
O=C(CN1CCc2nc(-c3ccc(OC(F)(F)F)cc3)sc2C1)N1CCN(C2CCC2)CC1 [Compound 316, 5-[2-(4-cyclobutylpiperazin-1-yl)-2-oxoethyl]-2-[4-(trifluoromethoxy)phenyl]-4,5,6,7-tetrahydro[1,3]thiazolo [5,4-c]pyridine]
CCOc1cccc(-c2nc3c(s2)CN(CC(=O)N2CCN(C4CCC4)CC2)CC3)c1 [Compound 317, 5-[2-(4-cyclobutylpiperazin-1-yl)-2-oxoethyl]-2-(3-ethoxyphenyl)-4,5,6,7-tetrahydro[1,3]thiazolo [5,4-c]pyridine]
O=C(CN1CCc2nc(-c3ccc(Oc4ccccc4)cc3)sc2C1)N1CCN(C2CCC2)CC1 [Compound 318, 5-[2-(4-cyclobutylpiperazin-1-yl)-2-oxoethyl]-2-(4-phenoxyphenyl)-4,5,6,7-tetrahydro[1,3]thiazolo [5,4-c]pyridine]
O=C(CN1CCc2nc(-c3cccc(OC(F)(F)F)c3)sc2C1)N1CCN(C2CCC2)CC1 [Compound 319, 5-[2-(4-cyclobutylpiperazin-1-yl)-2-oxoethyl]-2-[3-(trifluoromethoxy)phenyl]-4,5,6,7-tetrahydro[1,3]thiazolo [5,4-c]pyridine]
CSc1cccc(-c2nc3c(s2)CN(CC(=O)N2CCN(C4CCC4)CC2)CC3)c1 [Compound 320, 5-[2-(4-cyclobutylpiperazin-1-yl)-2-oxoethyl]-2-[3-(methylthio)phenyl]-4,5,6,7-tetrahydro[1,3]thiazolo [5,4-c]pyridine]
COc1ccc(-c2ccc(-c3nc4c(s3)CN(CC(=O)N3CCN(C5CCC5)CC3)CC4)cc2)cc1 [Compound 321, 5-[2-(4-cyclobutylpiperazin-1-yl)-2-oxoethyl]-2-(4′-methoxybiphenyl-4-yl)-4,5,6,7-tetrahydro[1,3]thiazolo [5,4-c]pyridine]
COc1ccc(-c2nc3c(s2)CN(CC(=O)N2CCN(C4CCC4)CC2)CC3)cc1F [Compound 322, 5-[2-(4-cyclobutylpiperazin-1-yl)-2-oxoethyl]-2-(3-fluoro-4-methoxyphenyl)-4,5,6,7-tetrahydro[1,3]thiazolo [5,4-c]pyridine]
COc1cc(F)c(-c2nc3c(s2)CN(CC(=O)N2CCN(C4CCC4)CC2)CC3)cc1F [Compound 323, 5-[2-(4-cyclobutylpiperazin-1-yl)-2-oxoethyl]-2-(2,5-difluoro-4-methoxyphenyl)-4,5,6,7-tetrahydro[1,3]thiazolo [5,4-c]pyridine]
COc1ccc2cc(-c3nc4c(s3)CN(CC(=O)N3CCN(C5CCC5)CC3)CC4)ccc2c1 [Compound 324, 5-[2-(4-cyclobutylpiperazin-1-yl)-2-oxoethyl]-2-(6-methoxy-2-naphthyl)-4,5,6,7-tetrahydro[1,3]thiazolo [5,4-c]pyridine]
CC(C)Oc1cccc(-c2nc3c(s2)CN(CC(=O)N2CCN(C4CCC4)CC2)CC3)c1 [Compound 325, 5-[2-(4-cyclobutylpiperazin-1-yl)-2-oxoethyl]-2-(3-isopropoxyphenyl)-4,5,6,7-tetrahydro[1,3]thiazolo [5,4-c]pyridine]
COc1cc(-c2nc3c(s2)CN(CC(=O)N2CCN(C4CCC4)CC2)CC3)cc(OC)c1OC [Compound 326, 5-[2-(4-cyclobutylpiperazin-1-yl)-2-oxoethyl]-2-(3,4,5-trimethoxyphenyl)-4,5,6,7-tetrahydro[1,3]thiazolo [5,4-c]pyridine]
COc1ccc(-c2nc3c(s2)CN(CC(=O)N2CCN(C4CCC4)CC2)CC3)cc1 [Compound 327, 5-[2-(4-cyclobutylpiperazin-1-yl)-2-oxoethyl]-2-(4-methoxyphenyl)-4,5,6,7-tetrahydro[1,3]thiazolo [5,4-c]pyridine]
O=C(CN1CCc2nc(-c3ccc4c(c3)OCO4)sc2C1)N1CCN(C2CCC2)CC1 [Compound 328, 2-(1,3-benzodioxol-5-yl)-5-[2-(4-cyclobutylpiperazin-1-yl)-2-oxoethyl]-4,5,6,7-tetrahydro[1,3]thiazolo [5,4-c]pyridine]
